# Assay results: patent US5721246A, “Heterobicyclic sulfonamide and sulfonic ester derivatives” (Eisai Co., Ltd., priority 1993, dated 1998)
# Test system: HCT116
# Assay: animal or person
# Settings: Mus musculus, HCT-116, ip, 504 h; 50 mg/kg/day i.p., once a day for 4 days; nude mice; tumor weight on 21st day; read-out: Growth inhibition ratio
# Excerpt: In vivo Antitumor Test Against HCT116 (Human Colon Cancer)
# HCT116 (5 to 8×10^6) was subcutaneously transplanted to the flank of each nude mouse (BALB/c·nu/nu, aged 7 to 8 weeks, female). A test compound according to the present invention was suspended in a physiological saline containing 3.5% of dimethyl sulfoxide and 6.5% of Tween 80 and the obtained suspension was intraperitoneally administered to the mice treated above once a day in a predetermined dose for 4 days after the time at which the tumor volume had increased to about 100 mm^3, which was about 7 days after the transplantation. On the other hand, only a physiological saline containing 3.5% of dimethyl sulfoxide and 6.5% of Tween 80 was intraperitoneally administered to the mice of the control group. The control group was composed of ten mice, while each treated group was composed of five mice. On the 21st day after the initiation of administration, the tumor was extirpated from each mouse to determine its weight. The tumor growth inhibition ratio was determined by the following formula: [formula] T: average weight of tumor of the treated group C: average weight of tumor of the control group
row,Compound,inhibition in vivo at 50 mg/kg
1,NS(=O)(=O)c1ccc(S(=O)(=O)Nc2cccc3c(Cl)c[nH]c23)cc1 [Example 19],88%
2,Nc1ccc(S(=O)(=O)Nc2cccc3c(Cl)c[nH]c23)cn1 [Example 33],74%
3,CC(C)Nc1ccc(S(=O)(=O)Nc2cccc3c(Cl)c[nH]c23)cn1 [Example 46],84%
4,CS(=O)(=O)NCc1ccc(S(=O)(=O)Nc2cccc3c(Cl)c[nH]c23)cc1 [Example 53],86%
5,CS(=O)(=O)Cc1ccc(S(=O)(=O)Nc2cccc3c(Cl)c[nH]c23)cc1 [Example 73],78%

# Same assay, conditions: Mus musculus, HCT-116, ip, 504 h; 100 mg/kg/day i.p., once a day for 4 days; nude mice; tumor weight on 21st day; read-out: Growth inhibition ratio
row,Compound,inhibition in vivo at 100 mg/kg
1,CS(=O)(=O)Nc1ccc(S(=O)(=O)Nc2cccc3c(Cl)c[nH]c23)cc1 [Example 4],97%
2,NS(=O)(=O)c1ccc(S(=O)(=O)Nc2ccc(Cl)c3c(Cl)c[nH]c23)cc1 [Example 21],95%
3,CS(=O)(=O)c1ccc(S(=O)(=O)Nc2cccc3c(Cl)c[nH]c23)cc1 [Example 23],87%
4,N#Cc1ccc(S(=O)(=O)Nc2cccc3c(C#N)c[nH]c23)cc1 [Example 28],77%
5,N#Cc1c[nH]c2c(NS(=O)(=O)c3ccc(N)nc3)cccc12 [Example 37],93%
6,CNC(=O)c1ccc(S(=O)(=O)Nc2cccc3c(Cl)c[nH]c23)cc1 [Example 72],87%

# Test system: colon 38 cells
# Assay: In vitro antitumor test against colon 38 cells (MTT)
# Type: cell-based
# Settings: 72 h, concentration at which 50% of mouse colon 38 cells are inhibited, 3 days
# Method: In vitro Antitumor Test Against Colon 38 Cells (Mouse Colon Cancer Cells)
# 2.5×10^3 (0.1 ml) of colon 38 cells suspended in RPMI1640 medium (a product of Sanko Junyaku) containing 10% of fetal bovine serum, penicillin (100 units/ml), streptomycin (100 μg/ml), mercaptoethanol (5×10^-5 M) and sodium pyruvate (1 mM) were inoculated in each well of a 96-well flat-bottomed microplate, and cultured in an incubator containing 5% of carbon dioxide at 37° C. for one day.
# A test compound according to the present invention was dissolved in dimethyl sulfoxide in a concentration of 20 mg/ml and the resulting solution was diluted with 10% fetal bovine serum/RPMI1640 medium to a concentration of 200 μg/ml. The resulting solution was diluted with 10% fetal bovine serum/RPMI1640 medium to prepare 3-fold serial dilutions with the maximum concentration being 200 μg/ml. The obtained dilutions were each poured into the well of the above-described culture plate in an amount of 0.1 ml. The resulting plate was cultured at 37° C. in an incubator containing 5% of carbon dioxide for 3 days.
# Thereafter, a solution of MTT[3-(4,5-dimethylthiazol-2-yl)-2,5-diphenyltetrazolium bromide] (having a concentration of 3.3 mg/ml) was added to each well in an amount of 0.05 ml. The resulting mixtures were further incubated for 2 hours. The supernatant was removed from each well by suction. Formed formazan was dissolved in 0.1 ml of dimethyl sulfoxide. The absorbance at 540 nm was determined with a microplate reader and the absorbance was taken as an index of the number of viable cells. The inhibitory ratio of the test compound was calculated according to the following formula to determine the IC50 of the test compound, with the IC50 referring to the concentration at which 50% of mouse colon 38 cells are inhibited: [formula] T: absorbance of well containing a test compound C: absorbance of well containing no test compound
row,Compound,IC50
1,O=[N+]([O-])c1ccc(S(=O)(=O)Nc2cccc3c(Cl)c[nH]c23)cc1 [Example 2],0.54 µg/mL
2,CS(=O)(=O)Nc1ccc(S(=O)(=O)Nc2cccc3c(Cl)c[nH]c23)cc1 [Example 4],0.26 µg/mL
3,O=S(=O)(Nc1cccc2c(Cl)c[nH]c12)c1cccc(Cl)c1 [Example 7],0.22 µg/mL
4,Nc1ccc(S(=O)(=O)Nc2ccc(Cl)c3c(Cl)c[nH]c23)cc1 [Example 8],0.09 µg/mL
5,COc1ccc(S(=O)(=O)Nc2cccc3cn[nH]c23)cc1 [Example 13],0.63 µg/mL
6,O=S(=O)(Nc1cccc2c(Cl)c[nH]c12)c1ccc(Cl)nc1 [Example 14],0.23 µg/mL
7,CSCc1ccc(S(=O)(=O)Nc2cccc3c(Cl)c[nH]c23)cc1 [Example 15],0.35 µg/mL
8,N#Cc1c[nH]c2c(NS(=O)(=O)c3ccc(Cl)nc3)cccc12 [Example 18],0.11 µg/mL
9,NS(=O)(=O)c1ccc(S(=O)(=O)Nc2cccc3c(Cl)c[nH]c23)cc1 [Example 19],0.1 µg/mL
10,NS(=O)(=O)c1ccc(S(=O)(=O)Nc2ccc(Cl)c3c(Cl)c[nH]c23)cc1 [Example 21],0.12 µg/mL
11,CSc1ccc(S(=O)(=O)Nc2cccc3c(Cl)c[nH]c23)cc1 [Example 22],0.69 µg/mL
12,CS(=O)(=O)c1ccc(S(=O)(=O)Nc2cccc3c(Cl)c[nH]c23)cc1 [Example 23],0.13 µg/mL
13,C[S+]([O-])c1ccc(S(=O)(=O)Nc2cccc3c(Cl)c[nH]c23)cc1 (stereo not drawn) [Example 24],0.09 µg/mL
14,CC(=O)Nc1ccc(S(=O)(=O)Nc2ccc(C)c3c(Cl)c[nH]c23)cc1 [Example 26],0.17 µg/mL
15,Cc1ccc(NS(=O)(=O)c2ccc(N)cc2)c2[nH]cc(Cl)c12 [Example 27],0.1 µg/mL
16,N#Cc1ccc(S(=O)(=O)Nc2cccc3c(C#N)c[nH]c23)cc1 [Example 28],0.12 µg/mL
17,N#Cc1ccc(NS(=O)(=O)c2ccc(N)cc2)c2[nH]cc(Cl)c12 [Example 32],0.17 µg/mL
18,Nc1ccc(S(=O)(=O)Nc2cccc3c(Cl)c[nH]c23)cn1 [Example 33],0.1 µg/mL
19,C[S+]([O-])Cc1ccc(S(=O)(=O)Nc2cccc3c(Cl)c[nH]c23)cc1 (stereo not drawn) [Example 34],0.14 µg/mL
20,NS(=O)(=O)CCc1ccc(S(=O)(=O)Nc2cccc3c(Cl)c[nH]c23)cc1 [Example 35],0.14 µg/mL
21,CS(=O)(=O)CCc1ccc(S(=O)(=O)Nc2cccc3c(Cl)c[nH]c23)cc1 [Example 36],0.11 µg/mL

row,Compound,IC50
1,N#Cc1c[nH]c2c(NS(=O)(=O)c3ccc(N)nc3)cccc12 [Example 37],0.19 µg/mL
2,CC(=O)Nc1ccc(S(=O)(=O)Nc2cccc3c(Cl)c[nH]c23)cc1Cl [Example 38],0.57 µg/mL
3,N#Cc1c[nH]c2c(NS(=O)(=O)c3ccc(Cl)s3)cccc12 [Example 40],0.27 µg/mL
4,COC(=O)Nc1ccc(S(=O)(=O)Nc2cccc3c(Cl)c[nH]c23)cc1 [Example 41],0.57 µg/mL
5,CONS(=O)(=O)c1ccc(S(=O)(=O)Nc2cccc3c(Cl)c[nH]c23)cc1 [Example 43],0.47 µg/mL
6,Cc1c(Cl)cccc1S(=O)(=O)Nc1cccc2c(C#N)c[nH]c12 [Example 45],0.44 µg/mL
7,CC(C)Nc1ccc(S(=O)(=O)Nc2cccc3c(Cl)c[nH]c23)cn1 [Example 46],0.47 µg/mL
8,CN(C)CCNc1ccc(S(=O)(=O)Nc2cccc3c(Cl)c[nH]c23)cn1 [Example 47],0.22 µg/mL
9,N#Cc1c[nH]c2c(NS(=O)(=O)c3ccco3)cccc12 [Example 48],0.23 µg/mL
10,CN(C)S(=O)(=O)Nc1ccc(S(=O)(=O)Nc2cccc3c(Cl)c[nH]c23)cc1 [Example 49],0.32 µg/mL
11,Cc1c[nH]c2c(NS(=O)(=O)c3ccc(S(C)(=O)=O)cc3)cccc12 [Example 50],0.22 µg/mL
12,N#Cc1cccc(S(=O)(=O)Nc2cccc3c(C#N)c[nH]c23)c1 [Example 51],0.09 µg/mL
13,CN(c1ccc(S(=O)(=O)Nc2cccc3c(Cl)c[nH]c23)cc1)S(C)(=O)=O [Example 52],0.14 µg/mL
14,CS(=O)(=O)NCc1ccc(S(=O)(=O)Nc2cccc3c(Cl)c[nH]c23)cc1 [Example 53],0.12 µg/mL
15,O=S(=O)(Nc1cccc2c(Cl)c[nH]c12)c1ccc(S(=O)(=O)N2CCCC2)cc1 [Example 54],0.51 µg/mL
16,Cn1cnc(S(=O)(=O)Nc2cccc3c(C#N)c[nH]c23)c1 [Example 55],0.59 µg/mL
17,O=S(=O)(Nc1cccc2c(Cl)c[nH]c12)c1ccc(NCCO)nc1 [Example 56],0.2 µg/mL
18,O=S(=O)(Nc1cccc2c(Cl)c[nH]c12)c1ccc(S)nc1 [Example 57],0.66 µg/mL
19,O=S(=O)(Nc1cccc2c(Cl)c[nH]c12)c1ccc(NC2CC2)nc1 [Example 59],0.54 µg/mL
20,Cc1cncc(S(=O)(=O)Nc2cccc3c(C#N)c[nH]c23)c1 [Example 60],0.08 µg/mL
21,CNS(=O)(=O)c1ccc(S(=O)(=O)Nc2cccc3c(Cl)c[nH]c23)cc1 [Example 61],0.24 µg/mL

row,Compound,IC50
1,CS(=O)(=O)NCCc1ccc(S(=O)(=O)Nc2cccc3c(Cl)c[nH]c23)cc1 [Example 62],0.18 µg/mL
2,NS(=O)(=O)Cc1ccc(S(=O)(=O)Nc2cccc3c(Cl)c[nH]c23)cc1 [Example 63],0.12 µg/mL
3,NC(=S)c1ccc(S(=O)(=O)Nc2cccc3c(Cl)c[nH]c23)cc1 [Example 64],0.23 µg/mL
4,N#Cc1c[nH]c2c(NS(=O)(=O)c3ccc(Br)cn3)cccc12 [Example 65],0.2 µg/mL
5,CC(=O)c1c[nH]c2c(NS(=O)(=O)c3cccc(Cl)c3)cccc12 [Example 67],0.87 µg/mL
6,N#Cc1c[nH]c2c(NS(=O)(=O)c3ccc(N)cc3)cc(Br)cc12 [Example 68],0.57 µg/mL
7,CCNS(=O)(=O)c1ccc(S(=O)(=O)Nc2cccc3c(Cl)c[nH]c23)cc1 [Example 69],0.47 µg/mL
8,CCS(=O)(=O)Nc1ccc(S(=O)(=O)Nc2cccc3c(Cl)c[nH]c23)cc1 [Example 70],0.42 µg/mL
9,N#CCCNc1ccc(S(=O)(=O)Nc2cccc3c(Cl)c[nH]c23)cn1 [Example 71],0.23 µg/mL
10,CNC(=O)c1ccc(S(=O)(=O)Nc2cccc3c(Cl)c[nH]c23)cc1 [Example 72],0.15 µg/mL
11,CS(=O)(=O)Cc1ccc(S(=O)(=O)Nc2cccc3c(Cl)c[nH]c23)cc1 [Example 73],0.11 µg/mL
12,CN(C)S(=O)(=O)c1ccc(S(=O)(=O)Nc2cccc3c(Cl)c[nH]c23)cc1 [Example 74],0.36 µg/mL
13,O=C(c1ccc(S(=O)(=O)Nc2cccc3c(Cl)c[nH]c23)cc1)N1CCCC1 [Example 75],0.28 µg/mL
14,NS(=O)(=O)Cc1ccc(S(=O)(=O)Nc2ccc(Cl)c3c(Cl)c[nH]c23)cc1 [Example 77],0.17 µg/mL
15,CS(=O)(=O)CCc1ccc(S(=O)(=O)Nc2cccc3c(C#N)c[nH]c23)cc1 [Example 78],0.26 µg/mL
16,CC(=O)N(C)c1ccc(S(=O)(=O)Nc2cccc3c(Cl)c[nH]c23)cc1 [Example 79],0.09 µg/mL
17,O=S(=O)(Nc1cccc2c(Cl)c[nH]c12)c1ccc(O)nc1 [Example 80],0.19 µg/mL
18,CN(CCc1ccc(S(=O)(=O)Nc2cccc3c(Cl)c[nH]c23)cc1)S(C)(=O)=O [Example 81],0.25 µg/mL
19,CN(Cc1ccc(S(=O)(=O)Nc2cccc3c(Cl)c[nH]c23)cc1)S(C)(=O)=O [Example 83],0.27 µg/mL
